This note sets out measurements from patent publication US11919858B2, “Aminonapthoquinone compounds and pharmaceutical composition for blocking ubiquitination-proteasome system in diseases” (Calgent Biotechnology Co., Ltd., priority 2015, dated 2024).

The pIC50 is the IC50 on a negative log10 scale, so that one unit is a factor of ten.

Each structure is given as a SMILES string. pIC50: −log10 of the molar value.

The test system of data set [1] is IL-6 production in human rheumatoid arthritis fibroblast-like synoviocyte cells. Put plainly: IL-6 production in RAFLS cells (ELISA). The class given is cell-based. The following applies: RA-FLS, 24 h. On the procedure:
Cell culture. Human rheumatoid arthritis fibroblast-like synoviocytes (RAFLS) from Cell Application Inc. (San Diego, CA, USA) were grown in synoviocyte growth medium from the same supplier.
IL-6 Determination. RA-FLS (2.5×10^4) was treated with various concentrations of MPT0L056 for 24 h, then the medium was collected and assayed for IL-6 using commercial ELISA kit.
For orientation: In an ELISA, binding on a coated surface is turned into a signal by an enzyme label.

The target in data set [2] is ITCH (Homo sapiens, UniProt Q96J02). Nature of the data set: Blocking of ITCH self-ubiquitination, in vitro assay. The class given is biochemical. The following applies: FIG. 1. The source says: MPT0L056 of the invention was used to test the blocking of ITCH self-ubiquitination. […] [Reference for in vitro assay: Scialpi F, Malatesta M, Peschiaroli A, Rossi M, Melino G, and Bernassola F. Itch self-polyubiquitylation occurs through lysine-63 linkages. Biochem Pharmacol. 2008 Dec. 1; 76(11):1515-21. Reference for in vivo assay: Chang L, Kamata H, Solinas G, Luo J L, Maeda S, Venuprasad K, Liu Y C, and Karin M. The E3 ubiquitin ligase itch couples JNK activation to TNFalpha-induced cell death by inducing c-FLIP(L) turnover. Cell. 2006 Feb. 10; 124(3):601-131
ITCH, sequence (Q96J02 whole entry, species assumed): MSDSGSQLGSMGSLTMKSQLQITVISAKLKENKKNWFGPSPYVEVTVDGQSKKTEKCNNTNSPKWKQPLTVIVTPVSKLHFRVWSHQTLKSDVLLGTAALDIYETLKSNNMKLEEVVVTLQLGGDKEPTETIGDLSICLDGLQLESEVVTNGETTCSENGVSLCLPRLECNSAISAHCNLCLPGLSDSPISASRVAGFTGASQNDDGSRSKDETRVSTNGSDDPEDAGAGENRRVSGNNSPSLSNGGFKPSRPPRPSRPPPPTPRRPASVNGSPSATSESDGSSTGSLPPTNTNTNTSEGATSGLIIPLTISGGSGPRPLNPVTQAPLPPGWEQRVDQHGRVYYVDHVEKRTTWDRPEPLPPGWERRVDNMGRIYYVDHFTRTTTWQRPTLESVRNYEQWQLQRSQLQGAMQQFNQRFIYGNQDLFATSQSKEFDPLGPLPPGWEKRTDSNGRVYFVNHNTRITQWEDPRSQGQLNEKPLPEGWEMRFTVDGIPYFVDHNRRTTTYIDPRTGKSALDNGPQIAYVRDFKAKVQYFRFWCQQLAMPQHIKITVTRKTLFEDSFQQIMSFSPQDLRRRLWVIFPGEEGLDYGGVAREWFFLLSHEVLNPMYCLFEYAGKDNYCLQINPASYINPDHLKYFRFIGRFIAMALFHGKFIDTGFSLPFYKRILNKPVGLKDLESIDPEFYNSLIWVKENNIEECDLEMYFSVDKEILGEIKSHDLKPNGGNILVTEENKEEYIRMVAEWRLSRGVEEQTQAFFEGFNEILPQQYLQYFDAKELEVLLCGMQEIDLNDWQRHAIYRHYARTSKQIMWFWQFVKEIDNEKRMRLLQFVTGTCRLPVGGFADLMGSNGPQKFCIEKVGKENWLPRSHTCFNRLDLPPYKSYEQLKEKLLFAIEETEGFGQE

The test system of data set [3] is adjuvant-induced arthritis (AIA). Nature of the data set: Adjuvant-induced arthritis (AIA) model. It counts as in vivo, Lewis rats. How it is done: In vivo adjuvant-induced arthritis (AIA) model. Five-week-old male Lewis rats were obtained from the National Laboratory Animal Center (Taipei, Taiwan). Complete Freund's adjuvant (CFA) was prepared by suspending heat-killed Mycobacterium butyricum (Difco) in mineral oil at 3 mg/mL. CFA-induced arthritis was induced by intradermal injection of 100 μL, of the CFA emulsion into the base of the right hind paw on day 0. […] On days 0, 2, 6, 9, 13, 17, and 21, the animals were weighed and both hind paw volumes measured using a digital plethysmometer (Diagnostic & Research Instruments Co. Ltd, Taipei, Taiwan). On day 21, micro-computed tomography (micro-CT) of the paws was performed by the Core Facilities Center of the National Research Program for Biopharmaceuticals using an in vivo micro-CT scanner (Skyscan 1176, Bruker Corp., Kontich, Belgium) at 18 μm resolution and 180° scanning with a rotation step of 0.8o per image, 300 msec integration time, 70 keV photon energy, and 350 μA current.
Quantification of volumetric bone mineral density (BMD) and bone volume (BV) was performed in a defined bone area ranging 12 mm from tarsals to the end of the calcaneus. The bone mineral content (BMC) was described by the product of BV and BMD.

The subject of data set [4] is human MDA-MB-231 breast adenocarcinoma. Put plainly: Human MDA-MB-231 breast cancer xenograft in female nude mice (TMU-MDA-MB-231-e0002).

The compound `O=C(Nc1ccncc1)c1ccc(CNC2=C(Cl)C(=O)c3ccccc3C2=O)cc1` [MPT0L056] gave a pIC50 in data set [1] of 5.14. Also, the “blocking of ITCH self-ubiquitination (Lys-dependent)” value in data set [2] is “blocks ITCH self-ubiquitnation (Lys-dependent) efficiently”. For the same compound, in data set [3] (AIA model, FIG. 17), the “bone mineral content (BMC) loss” value is “can prevent” and the “bone mineral density (BMD) loss” value is “can prevent”. In addition, the “development of arthritis (micro-CT)” value in data set [3] (MPT0L056 25 mg/kg, po, qd, day 2 to day 21, FIG. 15) is on record as “inhibits development of arthritis”. Moreover, the paw swelling entry in data set [3] (MPT0L056 25 mg/kg, po, qd, day 2 to day 21, FIG. 16) was “significantly reduces paw swelling”. Also, in data set [4] (MPT0L056 25 mg/kg p.o. once every day for ten days), the tumor growth delay result is given as “did not significantly express tumor growth delay”. The antitumor activity entry in data set [4] (MPT0L056 50 mg/kg p.o. once every day for ten days) is given as “produced significant antitumor activity”. In addition, the antitumor activity entry in data set [4] (MPT0L056 100 mg/kg p.o. once every day for ten days) is listed as “produced significant antitumor activity”. The body weight change result in data set [4] (MPT0L056 100, 50 and 25 mg/kg, FIG. 6) is reported as “did not significantly affect the animal body weight”.
